From ChEMBL document CHEMBL1124209, “Phosphonoformate and phosphonoacetate derivatives of 5-substituted 2'-deoxyuridines: synthesis and antiviral activity” (1988)
Converted amounts (≈) assume the structure as drawn.

What was measured:
Format in all cases: functional
Human alphaherpesvirus 2 [1] = experiment: Minimum inhibitory concentration causing 25% inhibition cytopathic effect induced by Herpes simplex virus(HSV) -2 (thymidine kinase deficient) in vero cells
Human alphaherpesvirus 1 [2] = experiment: Minimum inhibitory concentration causing 25% inhibition of cytopathic effect induced by Herpes simplex virus-1 (K979) in HEp-2 cells
Human alphaherpesvirus 1 [3] = experiment: Minimum inhibitory concentration causing 25% inhibition of cytopathic effect induced by herpes simplex virus (HSV)-1 (K979) in vero cells.
Human alphaherpesvirus 1 [4] = experiment: Minimum inhibitory concentration causing 25% inhibition of cytopathic effect induced by Herpes simplex virus(HSV) -1 (thymidine kinase deficient) in vero cells
Human alphaherpesvirus 1 [5] = experiment: Minimum inhibitory concentration causing 25% inhibition cytopathic effect induced by Herpes simplex virus(HSV) -1 (thymidine kinase deficient) in HEp-2 cells
Human alphaherpesvirus 1 [6] = experiment: Minimum inhibitory concentration causing 25% inhibition of cytopathic effect induced by Herpes simplex virus-1 (Brand) in vero cells
Human alphaherpesvirus 1 [7] = experiment: Minimum inhibitory concentration causing 25% inhibition cytopathic effect induced by Herpes simplex virus-1 (Brand) in HEp-2 cells
Human alphaherpesvirus 2 [8] = experiment: Minimum inhibitory concentration causing 25% inhibition of cytopathic effect induced by Herpes simplex virus(HSV) -2 (thymidine kinase deficient) in HEp-2 cells
Oryctolagus cuniculus = species: Oryctolagus cuniculus; experiment: Minimum cytotoxic concentration causing toxic effects on uninfected cells in rabbit
Human alphaherpesvirus 1 [9] = experiment: Minimum inhibitory concentration causing 25% inhibition of cytopathic effect induced by Herpes simplex virus(HSV) -1 (thymidine kinase deficient) in HEp-2 cells
Human alphaherpesvirus 1 [10] = experiment: Mean survival time in HSV-1 infected mice, after intraperitoneal administration of 0.5 mg/kg of compound
Human alphaherpesvirus 1 [11] = experiment: Mean survival time in HSV-1 infected mice, after intraperitoneal administration of 1 mg/kg of compound
Human alphaherpesvirus 1 [12] = experiment: Mean survival time in HSV-1 infected mice, after intraperitoneal administration of 5 mg/kg of compound
Human alphaherpesvirus 1 [13] = experiment: Mean survival time in HSV-1 infected mice, after peroral administration of 10 mg/kg of compound; settings: route oral
Human alphaherpesvirus 1 [14] = experiment: Mean survival time in HSV-1 infected mice, after peroral administration of 1 mg/kg of compound; settings: route oral
Human alphaherpesvirus 1 [15] = experiment: Mean survival time in HSV-1 infected mice, after peroral administration of 5 mg/kg of compound; settings: route oral
Human alphaherpesvirus 1 [16] = experiment: Cumulative mortality in percent of HSV-1 infected mice, after intraperitoneal administration of 0.5 mg/kg of compound
Human alphaherpesvirus 1 [17] = experiment: Cumulative mortality in percent of HSV-1 infected mice, after intraperitoneal administration of 1 mg/kg of compound
Human alphaherpesvirus 1 [18] = experiment: Cumulative mortality in percent of HSV-1 infected mice, after intraperitoneal administration of 5 mg/kg of compound
Human alphaherpesvirus 1 [19] = experiment: Cumulative mortality in percent of HSV-1 infected mice, after peroral administration of 1 mg/kg of compound; settings: route oral
Human alphaherpesvirus 1 [20] = experiment: Cumulative mortality in percent of HSV-1 infected mice, after peroral administration of 5 mg/kg of compound; settings: route oral
Human alphaherpesvirus 1 [21] = experiment: Cumulative mortality in percent of HSV-1 infected mice, after peroral administration of 10 mg/kg of compound; settings: route oral
Human alphaherpesvirus 2 [22] = experiment: Minimum inhibitory concentration causing 25% inhibition of cytopathic effect induced by Herpes simplex virus(HSV) -2 (thymidine kinase deficient) in vero cells
Mus musculus [23] = experiment: Cumulative lesions in HSV-1 infected mice, after administration of 0.1 % of compound intracutaneously
Mus musculus [24] = experiment: Mean duration of lesions in HSV-1 infected mice, after administration of 0.1 % of compound intracutaneously
Mus musculus [25] = experiment: Cumulative lesions in HSV-1 infected mice, after administration of 0.3 % of compound intracutaneously
Mus musculus [26] = experiment: Mean duration of lesions in HSV-1 infected mice, after administration of 0.3 % of compound intracutaneously

SMILES	MIC (Human alphaherpesvirus 2 [1])	MIC (Human alphaherpesvirus 1 [2])	MIC (Human alphaherpesvirus 1 [3])	MIC (Human alphaherpesvirus 1 [4])	MIC (Human alphaherpesvirus 1 [6])	MIC (Human alphaherpesvirus 1 [7])	MIC (Human alphaherpesvirus 2 [8])	MTC (Oryctolagus cuniculus)	MIC (Human alphaherpesvirus 1 [9])	MST (Human alphaherpesvirus 1 [10])	MST (Human alphaherpesvirus 1 [11])	MST (Human alphaherpesvirus 1 [12])	MST (Human alphaherpesvirus 1 [13])	MST (Human alphaherpesvirus 1 [14])	MST (Human alphaherpesvirus 1 [15])	CMP (Human alphaherpesvirus 1 [16])	CMP (Human alphaherpesvirus 1 [17])	CMP (Human alphaherpesvirus 1 [18])	CMP (Human alphaherpesvirus 1 [19])	CMP (Human alphaherpesvirus 1 [20])	also measured
CCOC(=O)CP(=O)(OC)OC[C@H]1O[C@@H](n2cc(I)c(=O)[nH]c2=O)C[C@@H]1O (stereo partly specified)	> 193 µM	57.9 µM (≈ 30 µg/mL)	57.9 µM (≈ 30 µg/mL)	57.9 µM (≈ 30 µg/mL)	1.9 µM (≈ 0.985 µg/mL)	5.8 µM (≈ 3.01 µg/mL)	193 µM (≈ 100 µg/mL)	193 µM	–	–	–	–	–	–	–	–	–	–	–	–	MIC (Human alphaherpesvirus 1 [5]): 1.9 µM (≈ 0.985 µg/mL)
COP(=O)(CC(=O)OC[C@H]1O[C@@H](n2cc(CCCl)c(=O)[nH]c2=O)C[C@@H]1O)OC	> 227 µM	> 227 µM	> 227 µM	227 µM (≈ 100 µg/mL)	6.8 µM (≈ 3 µg/mL)	6.8 µM (≈ 3 µg/mL)	> 227 µM	749 µM	> 227 µM	13.3 days	13 days	19.2 days	12.2 days	13.5 days	11.2 days	67	75	8	58	83	CMP (Human alphaherpesvirus 1 [21]): 75
CCOC(=O)P(=O)(O)OC[C@H]1O[C@@H](n2cc(CCCl)c(=O)[nH]c2=O)C[C@@H]1O	–	234 µM (≈ 99.9 µg/mL)	> 234 µM	70.3 µM (≈ 30 µg/mL)	23.4 µM (≈ 9.99 µg/mL)	23.4 µM (≈ 9.99 µg/mL)	> 234 µM	>=773 uM	> 234 µM	13.8 days	16.5 days	20 days	15.3 days	10.1 days	11.9 days	58	33	0	92	75	MIC (Human alphaherpesvirus 2 [22]): 234 µM (≈ 99.9 µg/mL); lesions (Mus musculus [23]): 80; MDL (Mus musculus [24]): 6.7 days; CMP (Human alphaherpesvirus 1 [21]): 50
O=C(O)CP(=O)(O)OC[C@H]1O[C@@H](n2cc(CCCl)c(=O)[nH]c2=O)C[C@@H]1O	> 232 µM	69.6 µM (≈ 28.7 µg/mL)	232 µM (≈ 95.8 µg/mL)	23.2 µM (≈ 9.58 µg/mL)	2.3 µM (≈ 0.949 µg/mL)	2.3 µM (≈ 0.949 µg/mL)	232 µM (≈ 95.8 µg/mL)	766 µM	23.2 µM (≈ 9.58 µg/mL)	14.2 days	14.1 days	17.3 days	15.3 days	8.6 days	11.2 days	50	58	25	100	92	lesions (Mus musculus [23]): 60; MDL (Mus musculus [24]): 5.3 days; CMP (Human alphaherpesvirus 1 [21]): 50
O=C(CP(=O)(O)O)OC[C@H]1O[C@@H](n2cc(CCCl)c(=O)[nH]c2=O)C[C@@H]1O	–	> 242 µM	> 242 µM	72.7 µM (≈ 30 µg/mL)	24.2 µM (≈ 9.99 µg/mL)	24.2 µM (≈ 9.99 µg/mL)	242 µM (≈ 99.9 µg/mL)	800 µM	242 µM (≈ 99.9 µg/mL)	12.2 days	16 days	18.3 days	16.3 days	11.8 days	15.3 days	75	33	17	67	50	MIC (Human alphaherpesvirus 2 [22]): 72.7 µM (≈ 30 µg/mL); lesions (Mus musculus [25]): 40; MDL (Mus musculus [26]): 2.4 days; CMP (Human alphaherpesvirus 1 [21]): 42
CCOC(=O)CP(=O)(OC)OC[C@H]1O[C@@H](n2cc(CCCl)c(=O)[nH]c2=O)C[C@@H]1O (stereo partly specified)	–	> 220 µM	> 220 µM	66 µM (≈ 30 µg/mL)	6.6 µM (≈ 3 µg/mL)	66 µM (≈ 30 µg/mL)	> 220 µM	726 µM	> 220 µM	13.9 days	11.9 days	11.8 days	11.5 days	8.9 days	12.8 days	58	92	83	100	75	MIC (Human alphaherpesvirus 2 [22]): > 220 µM; lesions (Mus musculus [23]): 83; lesions (Mus musculus [25]): 58; MDL (Mus musculus [24]): 10.6 days; MDL (Mus musculus [26]): 6 days; CMP (Human alphaherpesvirus 1 [21]): 67
O=C(CP(=O)(O)O)O[C@H]1C[C@H](n2cc(CCCl)c(=O)[nH]c2=O)O[C@@H]1CO	> 242 µM	72.7 µM (≈ 30 µg/mL)	242 µM (≈ 99.9 µg/mL)	242 µM (≈ 99.9 µg/mL)	24.2 µM (≈ 9.99 µg/mL)	72.7 µM (≈ 30 µg/mL)	> 242 µM	800 µM	> 242 µM	–	–	–	–	–	–	–	–	–	–	–	–
CCOC(=O)P(=O)(OC)OC[C@H]1O[C@@H](n2cc(I)c(=O)[nH]c2=O)C[C@@H]1O (stereo partly specified)	5.9 µM (≈ 2.97 µg/mL)	5.9 µM (≈ 2.97 µg/mL)	5.9 µM (≈ 2.97 µg/mL)	19.8 µM (≈ 9.98 µg/mL)	0.6 µM (≈ 0.303 µg/mL)	2 µM (≈ 1.01 µg/mL)	5.9 µM (≈ 2.97 µg/mL)	198 µM	–	–	–	–	–	–	–	–	–	–	–	–	MIC (Human alphaherpesvirus 1 [5]): 2 µM (≈ 1.01 µg/mL)
CCOC(=O)P(=O)(OC)OC[C@H]1O[C@@H](n2cc(CCCl)c(=O)[nH]c2=O)C[C@@H]1O (stereo partly specified)	–	22.7 µM (≈ 10 µg/mL)	227 µM (≈ 100 µg/mL)	68.1 µM (≈ 30 µg/mL)	0.7 µM (≈ 0.309 µg/mL)	0.7 µM (≈ 0.309 µg/mL)	> 227 µM	749 µM	> 227 µM	16.7 days	15.6 days	20 days	18.9 days	13.9 days	16 days	33	42	0	63	38	MIC (Human alphaherpesvirus 2 [22]): > 227 µM; lesions (Mus musculus [23]): 33; lesions (Mus musculus [25]): 17; MDL (Mus musculus [24]): 3.3 days; MDL (Mus musculus [26]): 1.4 days; CMP (Human alphaherpesvirus 1 [21]): 13
O=c1[nH]c(=O)n([C@H]2C[C@H](O)[C@@H](CO)O2)cc1I [IDOXURIDINE]	> 281 µM	0.8 µM (≈ 0.283 µg/mL)	2.8 µM (≈ 0.991 µg/mL)	8.4 µM (≈ 2.97 µg/mL)	0.3 µM (≈ 0.106 µg/mL)	0.8 µM (≈ 0.283 µg/mL)	8.4 µM (≈ 2.97 µg/mL)	281 µM	–	–	–	–	–	–	–	–	–	–	–	–	MIC (Human alphaherpesvirus 1 [5]): 0.8 µM (≈ 0.283 µg/mL)
